From patent US20260232767A1, “INTERLEUKIN-23 RECEPTOR ANTAGONIST PEPTIDES FOR USE IN THE TREATMENT OF PSORIASIS” (Janssen Pharmaceutica NV, priority 2023, published 2026)

Test system: subjects with moderate-to-severe plaque psoriasis
Assay: Hematology and chemistry laboratory values by CTCAE grade
Format: in vivo, human
Conditions: 25 mg BID; through Week 56
Text: The proportion of participants who discontinued study intervention due to one or more AEs was low (n=4). All events were singular in nature with no apparent dose-dependent increase (Table 48 and Table 52). The number of participants with abnormal hematology and chemistry laboratory values with CTCAE toxicity grade≥3 were low through the end of the study (Table 43 through Table 46). There was no apparent dose-dependent increase in laboratory abnormality occurrences.

CC(=O)NCCCC[C@@H]1NC(=O)[C@H](Cc2c[nH]c3c(C)cccc23)NC(=O)[C@H]([C@@H](C)O)NC(=O)[C@H](CC(N)=O)NC(=O)[C@@H](NC(C)=O)C(C)(C)SSC(C)(C)[C@@H](C(=O)N[C@@H](Cc2ccc(OCCN)cc2)C(=O)N[C@@H](Cc2ccc3ccccc3c2)C(=O)NC2(C(=O)N[C@@H](CCC(=O)O)C(=O)N[C@@H](CC(N)=O)C(=O)N[C@@H](Cc3cccnc3)C(=O)N(C)CC(N)=O)CCOCC2)NC1=O [IL-23 receptor antagonist peptide, Ac-[Pen]*-N-T-[W(7-Me)]-[Lys(Ac)]-[Pen]*-Phe[4-(2-aminoethoxy)]-[2-Nal]-[THP]-E-N-[3-Pal]-Sarc-NH2 (*[Pen]-[Pen]* formdisulfidebond)]
0: Alanine Aminotransferase (increased): Subjects with Grade 3 | Alanine Aminotransferase (increased): Subjects with Grade 4 | Albumin (decreased): Subjects with Grade 1 | Albumin (decreased): Subjects with Grade 2 | Albumin (decreased): Subjects with Grade 3 | Albumin (decreased): Subjects with Grade 4 | Albumin (decreased): Subjects with postbaseline maximum toxicity grade >0 | Alkaline Phosphatase (increased): Subjects with Grade 2 | Alkaline Phosphatase (increased): Subjects with Grade 3 | Alkaline Phosphatase (increased): Subjects with Grade 4 | Aspartate Aminotransferase (increased): Subjects with Grade 3 | Aspartate Aminotransferase (increased): Subjects with Grade 4 | Calcium corrected (decreased): Subjects with Grade 2 | Calcium corrected (decreased): Subjects with Grade 3 | Calcium corrected (decreased): Subjects with Grade 4 | Calcium corrected (increased): Subjects with Grade 1 | Calcium corrected (increased): Subjects with Grade 2 | Calcium corrected (increased): Subjects with Grade 3 | Calcium corrected (increased): Subjects with Grade 4 | Calcium corrected (increased): Subjects with postbaseline maximum toxicity grade >0 | Cholesterol (increased): Subjects with Grade 2 | Cholesterol (increased): Subjects with Grade 3 | Cholesterol (increased): Subjects with Grade 4 | Creatinine (increased): Subjects with Grade 1 | Creatinine (increased): Subjects with Grade 2 | Creatinine (increased): Subjects with Grade 3 | Creatinine (increased): Subjects with Grade 4 | Creatinine (increased): Subjects with postbaseline maximum toxicity grade >0 | Gamma Glutamyl Transferase (increased): Subjects with Grade 2 | Gamma Glutamyl Transferase (increased): Subjects with Grade 3 | Gamma Glutamyl Transferase (increased): Subjects with Grade 4 | Glucose (decreased): Subjects with Grade 2 | Glucose (decreased): Subjects with Grade 3 | Glucose (decreased): Subjects with Grade 4 | Hemoglobin (g/L) (decreased): subjects with Grade 1 | Hemoglobin (g/L) (decreased): subjects with Grade 2 | Hemoglobin (g/L) (decreased): subjects with Grade 3 | Hemoglobin (g/L) (decreased): subjects with Grade 4 | Hemoglobin (g/L) (decreased): subjects with postbaseline maximum toxicity grade >0 | Hemoglobin (g/L) (increased): subjects with Grade 2 | Hemoglobin (g/L) (increased): subjects with Grade 3 | Hemoglobin (g/L) (increased): subjects with Grade 4 | Lymphocytes (×10^9/L) (decreased): subjects with Grade 3 | Lymphocytes (×10^9/L) (decreased): subjects with Grade 4 | Lymphocytes (×10^9/L) (increased): subjects with Grade 1 | Lymphocytes (×10^9/L) (increased): subjects with Grade 3 | Lymphocytes (×10^9/L) (increased): subjects with Grade 4 | Magnesium (decreased): Subjects with Grade 1 | Magnesium (decreased): Subjects with Grade 2 | Magnesium (decreased): Subjects with Grade 3 | Magnesium (decreased): Subjects with Grade 4 | Magnesium (decreased): Subjects with postbaseline maximum toxicity grade >0 | Magnesium (increased): Subjects with Grade 2 | Magnesium (increased): Subjects with Grade 3 | Magnesium (increased): Subjects with Grade 4 | Neutrophils (×10^9/L) (decreased): subjects with Grade 3 | Neutrophils (×10^9/L) (decreased): subjects with Grade 4 | Platelets (×10^9/L) (decreased): subjects with Grade 2 | Platelets (×10^9/L) (decreased): subjects with Grade 3 | Platelets (×10^9/L) (decreased): subjects with Grade 4 | Potassium (decreased): Subjects with Grade 1 | Potassium (decreased): Subjects with Grade 2 | Potassium (decreased): Subjects with Grade 3 | Potassium (decreased): Subjects with Grade 4 | Potassium (decreased): Subjects with postbaseline maximum toxicity grade >0 | Potassium (increased): Subjects with Grade 2 | Potassium (increased): Subjects with Grade 3 | Potassium (increased): Subjects with Grade 4 | Sodium (decreased): Subjects with Grade 1 | Sodium (decreased): Subjects with Grade 2 | Sodium (decreased): Subjects with Grade 3 | Sodium (decreased): Subjects with Grade 4 | Sodium (decreased): Subjects with postbaseline maximum toxicity grade >0 | Sodium (increased): Subjects with Grade 2 | Sodium (increased): Subjects with Grade 3
